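Grown in 96-well plates, cells were treated for 48 hours with each compound at five concentrations. Insufficient inhibition: endpoint recorded as highest concentration tested. Here, GI50 denotes the concentration required for 50% inhibition of growth.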 The source made the active and inactive calls. Cut-off read from the data, not from the text of the source: active = GI50 up to about 1.1 µM and inactive = higher.
Key:
Assay in all cases: growth of human tumour cells (NCI), 48 h
A498 = system: A498
A549 = system: A549
CCRF-CEM = system: CCRF-CEM
DU-145 = system: DU-145
HCC 2998 = system: HCC 2998
HOP-62 = system: HOP-62
HT-29 = system: HT-29
IGROV-1 = system: IGROV-1
M14 = system: M14
MCF7 = system: MCF7
NCI-H23 = system: NCI-H23
NCI-H522 = system: NCI-H522
OVCAR-5 = system: OVCAR-5
RPMI-8226 = system: RPMI-8226
SF-295 = system: SF-295
SK-OV-3 = system: SK-OV-3
SN12C = system: SN12C
TK-10 = system: TK-10
U-251 = system: U-251
UACC-62 = system: UACC-62

SMILES	GI50 (A498)	GI50 (A549)	GI50 (CCRF-CEM)	GI50 (DU-145)	GI50 (HCC 2998)	GI50 (HOP-62)	GI50 (HT-29)	GI50 (IGROV-1)	GI50 (M14)	GI50 (MCF7)	GI50 (NCI-H23)	GI50 (NCI-H522)	GI50 (OVCAR-5)	GI50 (RPMI-8226)	GI50 (SF-295)	GI50 (SK-OV-3)	GI50 (SN12C)	GI50 (TK-10)	GI50 (U-251)	GI50 (UACC-62)
Nc1ncnc2c1ncn2[C@@H]1O[C@H](COP(=O)(O)OP(=O)(O)OC[C@H]2O[C@@H](OCCCO)[C@H](O)[C@@H]2O)[C@@H](O)[C@H]1O	> 100 µM (inactive)	87.7 µM (inactive)	> 100 µM (inactive)	> 100 µM (inactive)	> 100 µM (inactive)	> 100 µM (inactive)	69.8 µM (inactive)	> 100 µM (inactive)	> 100 µM (inactive)	> 100 µM (inactive)	> 100 µM (inactive)	> 100 µM (inactive)	> 100 µM (inactive)	> 100 µM (inactive)	> 100 µM (inactive)	> 100 µM (inactive)	> 100 µM (inactive)	> 100 µM (inactive)	> 100 µM (inactive)	> 100 µM (inactive)
CC(=O)OCC12C(OC(C)=O)C(=O)C3C(OC(C)=O)C14OC3(C)COC(=O)c1cccnc1C(C)C(C)C(=O)OC(C(OC(C)=O)C2OC(C)=O)C4(C)O (centres undefined)	> 100 µM (inactive)	> 100 µM (inactive)	> 100 µM (inactive)	> 100 µM (inactive)	> 100 µM (inactive)	> 100 µM (inactive)	> 100 µM (inactive)	> 100 µM (inactive)	> 100 µM (inactive)	> 100 µM (inactive)	> 100 µM (inactive)	> 100 µM (inactive)	> 100 µM (inactive)	> 100 µM (inactive)	> 100 µM (inactive)	> 100 µM (inactive)	> 100 µM (inactive)	> 100 µM (inactive)	> 100 µM (inactive)	> 100 µM (inactive)
CCC/C(Cl)=N\OC(=O)Nc1ccc(Br)cc1	16.9 µM (inactive)	18.4 µM (inactive)	1.78 µM (inactive)	13.8 µM (inactive)	17.3 µM (inactive)	20.9 µM (inactive)	17.7 µM (inactive)	12.8 µM (inactive)	12 µM (inactive)	6.47 µM (inactive)	17.4 µM (inactive)	1.75 µM (inactive)	13.9 µM (inactive)	2.96 µM (inactive)	14.9 µM (inactive)	16.8 µM (inactive)	14 µM (inactive)	14.2 µM (inactive)	16.4 µM (inactive)	18.9 µM (inactive)
O=C(c1ccccc1)N(C(=O)c1ccccc1)c1nc(SCc2ccccc2)ns1	27.9 µM (inactive)	38.5 µM (inactive)	25.6 µM (inactive)	30.9 µM (inactive)	22.1 µM (inactive)	32.9 µM (inactive)	25.5 µM (inactive)	36.9 µM (inactive)	34.4 µM (inactive)	30.5 µM (inactive)	24 µM (inactive)	20 µM (inactive)	33.7 µM (inactive)	19.6 µM (inactive)	25.1 µM (inactive)	43.2 µM (inactive)	25.2 µM (inactive)	25.9 µM (inactive)	19.2 µM (inactive)	17.1 µM (inactive)
NCc1ccc(O)c(O)c1O	75.3 µM (inactive)	27.6 µM (inactive)	10.9 µM (inactive)	62.5 µM (inactive)	> 66.4 µM (inactive)	46.6 µM (inactive)	16.9 µM (inactive)	38.9 µM (inactive)	14.3 µM (inactive)	16.8 µM (inactive)	28.1 µM (inactive)	> 59 µM (inactive)	17.3 µM (inactive)	26.9 µM (inactive)	25.7 µM (inactive)	> 78 µM (inactive)	20 µM (inactive)	> 100 µM (inactive)	24.9 µM (inactive)	27.1 µM (inactive)
CC1(C)OC2C(CO)OC(n3cnc(N)nc3=O)C2O1 (centres undefined)	> 100 µM (inactive)	> 100 µM (inactive)	> 100 µM (inactive)	> 100 µM (inactive)	> 100 µM (inactive)	> 100 µM (inactive)		> 100 µM (inactive)	> 100 µM (inactive)	> 100 µM (inactive)	> 100 µM (inactive)	> 100 µM (inactive)	> 100 µM (inactive)	> 100 µM (inactive)	> 100 µM (inactive)	> 100 µM (inactive)	> 100 µM (inactive)	> 100 µM (inactive)	> 100 µM (inactive)	> 100 µM (inactive)
O=C(Cc1ccc(OCc2cccc(Cl)c2)cc1)NO	2.7 µM (inactive)	27.5 µM (inactive)	6.76 µM (inactive)	21.5 µM (inactive)	58.7 µM (inactive)	24.6 µM (inactive)	27 µM (inactive)	17.5 µM (inactive)	29.4 µM (inactive)	37.8 µM (inactive)	34 µM (inactive)	15.8 µM (inactive)	30.3 µM (inactive)	3.77 µM (inactive)	32 µM (inactive)	29.8 µM (inactive)	27.6 µM (inactive)	34.8 µM (inactive)	28.9 µM (inactive)	18.7 µM (inactive)
Cc1ccc(S(=O)(=O)Oc2cc(S(=O)(=O)O)cc3cc(S(=O)(=O)O)cc(N)c23)cc1	> 100 µM (inactive)	> 100 µM (inactive)	> 100 µM (inactive)	> 100 µM (inactive)	> 100 µM (inactive)	> 100 µM (inactive)	> 100 µM (inactive)	> 100 µM (inactive)	> 100 µM (inactive)	> 100 µM (inactive)	> 100 µM (inactive)	> 100 µM (inactive)	> 100 µM (inactive)	> 100 µM (inactive)	> 100 µM (inactive)	> 100 µM (inactive)	> 100 µM (inactive)	> 100 µM (inactive)	> 100 µM (inactive)	> 100 µM (inactive)
CC(/C=N/N(C)C1=NCCCN1)=N/N(C)C1=NCCCN1	> 100 µM (inactive)	> 100 µM (inactive)	> 100 µM (inactive)	> 100 µM (inactive)	> 100 µM (inactive)	> 100 µM (inactive)	> 100 µM (inactive)	> 100 µM (inactive)		> 100 µM (inactive)	> 100 µM (inactive)	> 100 µM (inactive)	> 100 µM (inactive)	> 100 µM (inactive)	> 100 µM (inactive)	> 100 µM (inactive)	> 100 µM (inactive)	> 100 µM (inactive)	> 100 µM (inactive)	> 100 µM (inactive)
O=C(ON=C1c2ccccc2C(Br)C(Br)c2ccccc21)c1ccccc1 (centres undefined)	25.2 µM (inactive)	20.6 µM (inactive)	0.673 µM (active)	17.5 µM (inactive)	21.8 µM (inactive)	12.7 µM (inactive)	17.1 µM (inactive)	2.44 µM (inactive)	17.3 µM (inactive)	14.9 µM (inactive)	19.4 µM (inactive)	1.69 µM (inactive)	18.8 µM (inactive)	4.57 µM (inactive)	18.5 µM (inactive)	18.6 µM (inactive)	20.7 µM (inactive)	15.8 µM (inactive)	17.7 µM (inactive)	16.7 µM (inactive)
C[N+]12CCCCC1C(CN1C(=O)Cc3c4ccccc4c(c4ccccc34)CC1=O)CCC2 (centres undefined)	> 100 µM (inactive)	> 100 µM (inactive)	> 100 µM (inactive)	> 100 µM (inactive)	> 100 µM (inactive)	> 100 µM (inactive)	> 100 µM (inactive)	> 100 µM (inactive)	> 100 µM (inactive)	> 100 µM (inactive)	> 100 µM (inactive)	> 100 µM (inactive)	> 100 µM (inactive)	> 100 µM (inactive)	> 100 µM (inactive)	> 100 µM (inactive)	> 100 µM (inactive)	> 100 µM (inactive)	> 100 µM (inactive)	> 100 µM (inactive)
O=C(c1ccc(/N=C/c2ccccc2O)cc1)c1ccc(/N=C/c2ccccc2O)cc1	> 100 µM (inactive)	> 100 µM (inactive)		> 100 µM (inactive)	> 100 µM (inactive)	> 100 µM (inactive)	> 100 µM (inactive)	> 100 µM (inactive)	> 100 µM (inactive)	> 100 µM (inactive)	> 100 µM (inactive)	> 100 µM (inactive)	> 100 µM (inactive)	> 100 µM (inactive)	> 100 µM (inactive)	> 100 µM (inactive)		> 100 µM (inactive)	> 100 µM (inactive)	> 100 µM (inactive)
CC1(C)CCCCCCCCCC(C)(CCCO)C1=O (centres undefined)	18.5 µM (inactive)	15.5 µM (inactive)	28.9 µM (inactive)	17.2 µM (inactive)	17.7 µM (inactive)	16.6 µM (inactive)	13.7 µM (inactive)	17.4 µM (inactive)	14.3 µM (inactive)	17.1 µM (inactive)	15.5 µM (inactive)	15.4 µM (inactive)	15.5 µM (inactive)	26.5 µM (inactive)	18.6 µM (inactive)	17.4 µM (inactive)	18.2 µM (inactive)		16.8 µM (inactive)	18.4 µM (inactive)
Cc1cccc2c1C/C(=C\c1cccc(C)c1C(=O)O)C2=O	> 100 µM (inactive)	> 100 µM (inactive)	84.9 µM (inactive)	> 100 µM (inactive)	> 100 µM (inactive)	> 100 µM (inactive)	70.1 µM (inactive)	> 100 µM (inactive)	> 100 µM (inactive)	> 100 µM (inactive)	> 100 µM (inactive)	> 100 µM (inactive)	> 100 µM (inactive)	46.6 µM (inactive)	> 100 µM (inactive)		> 100 µM (inactive)	> 100 µM (inactive)	> 100 µM (inactive)	> 100 µM (inactive)

Source: ChEMBL document CHEMBL1201862, “PubChem BioAssay data set” (2004)
